Some test systems named below: HOP-92 NSCLC; HL-60(TB) leukemia; SF-295 CNS; EKVX NSCLC; DU-145 prostate; A549 NSCLC; MDA-MB-231 breast; MOLT-4 leukemia; HOP-62 NSCLC; PC-3 prostate; RPMI-8226 leukemia; NCI-H23 lung.
Common to all, as to experiment: NCI-60 cell line screen, 48 h

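Assay format: 96-well plates, 48-hour exposure. The concentration for full growth arrest is given as TGI.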 A value given as a limit tells only on which side of the number the result lay.

In the case of `COC(=O)C1(O)c2ccccc2N=C2C(=O)c3ccccc3N21` (centres undefined), the TGI with HOP-92 NSCLC, in the experiment on HL-60(TB) leukemia, in the experiment with SF-295 CNS, with EKVX NSCLC, with DU-145 prostate and in the experiment with A549 NSCLC was more than 100 µM throughout. Also, the TGI in the experiment with MDA-MB-231 breast, in the experiment with MOLT-4 leukemia, in the experiment with HOP-62 NSCLC, in the experiment on PC-3 prostate, in the experiment on RPMI-8226 leukemia and in the experiment with NCI-H23 lung was more than 100 µM throughout.
Turning to `O=C1CC2(CCC(O)(c3ccc(Cl)cc3)C(C(=O)c3ccc(Cl)cc3)C2)C(=O)c2ccccc2N1` (centres undefined), the TGI was 8.31 µM in the experiment on HOP-92 NSCLC; more than 31.6 µM in the experiment on HL-60(TB) leukemia; 39.5 µM in the experiment on SF-295 CNS; more than 48.6 µM with EKVX NSCLC; more than 36.8 µM with DU-145 prostate; more than 50.8 µM in the experiment on A549 NSCLC. In addition, the TGI is 30.6 µM with MDA-MB-231 breast; 8.56 µM with MOLT-4 leukemia; more than 100 µM in the experiment with HOP-62 NSCLC; more than 100 µM in the experiment with PC-3 prostate; more than 100 µM in the experiment on RPMI-8226 leukemia; 53.8 µM in the experiment on NCI-H23 lung.
Take `O=S1(=O)CCN(Cc2ccccc2)/C1=N\S(=O)(=O)c1ccc(Cl)cc1`: the TGI in the experiment on HOP-92 NSCLC is 35.3 µM; in the experiment with HL-60(TB) leukemia it was 65.9 µM; with SF-295 CNS it was more than 100 µM; in the experiment with EKVX NSCLC, 28.5 µM; in the experiment on DU-145 prostate, 35.3 µM; in the experiment on A549 NSCLC, more than 100 µM. Besides, the TGI was more than 100 µM in the experiment on MDA-MB-231 breast; 49.9 µM in the experiment on MOLT-4 leukemia; more than 100 µM with HOP-62 NSCLC; 36.7 µM with PC-3 prostate; 79 µM in the experiment on RPMI-8226 leukemia; 35.3 µM with NCI-H23 lung.
For `CNC(=O)c1n[nH][nH]c1=O`, the TGI with HOP-92 NSCLC, with HL-60(TB) leukemia, in the experiment on SF-295 CNS, with EKVX NSCLC, in the experiment on DU-145 prostate and in the experiment with A549 NSCLC was more than 100 µM throughout. The TGI in the experiment on MDA-MB-231 breast, in the experiment on MOLT-4 leukemia, in the experiment on HOP-62 NSCLC, in the experiment on PC-3 prostate, in the experiment on RPMI-8226 leukemia and in the experiment with NCI-H23 lung was more than 100 µM each time.
Turning to `CC(C)CC1c2[nH]c3ccccc3c2C[C@H]2C(=O)NC(CCC(=O)OC(C)(C)C)C(=O)N12` (some centres undefined), the TGI is 78.1 µM in the experiment with HOP-92 NSCLC; 55.2 µM in the experiment on HL-60(TB) leukemia; 41.1 µM in the experiment with SF-295 CNS; more than 100 µM with EKVX NSCLC; more than 100 µM with DU-145 prostate; more than 100 µM with A549 NSCLC. For the same molecule, the TGI with MDA-MB-231 breast is 79.1 µM; with MOLT-4 leukemia, 72.8 µM; with HOP-62 NSCLC, 56.2 µM; in the experiment with PC-3 prostate it was 69 µM; in the experiment on RPMI-8226 leukemia, 67.2 µM; in the experiment on NCI-H23 lung it was more than 100 µM.
Consider `COc1ccc(OC)c2nc3c(C(=O)NCCN(C)C)cccc3nc12`, for which the TGI was 50.2 µM in the experiment on HOP-92 NSCLC; 16.5 µM in the experiment with HL-60(TB) leukemia; 25.6 µM with SF-295 CNS; 22.9 µM in the experiment with EKVX NSCLC; more than 100 µM with DU-145 prostate; more than 34.7 µM in the experiment on A549 NSCLC. For the same molecule, the TGI with MDA-MB-231 breast is 19.3 µM; with MOLT-4 leukemia it was 17.6 µM; in the experiment with HOP-62 NSCLC, 35.7 µM; with PC-3 prostate, 17.9 µM; with RPMI-8226 leukemia, more than 24.2 µM; with NCI-H23 lung it was 25.5 µM.
On to `[N-]=[N+]=Nc1ccc2c(c1)Sc1ccccc1N2CCCCCl`, for which the TGI in the experiment with HOP-92 NSCLC is more than 100 µM; in the experiment with HL-60(TB) leukemia it was 64.3 µM; in the experiment on SF-295 CNS it was more than 100 µM; with EKVX NSCLC it was more than 100 µM; in the experiment on DU-145 prostate, more than 100 µM; in the experiment with A549 NSCLC, more than 100 µM. Further, the TGI with MDA-MB-231 breast, in the experiment on MOLT-4 leukemia, in the experiment on HOP-62 NSCLC, in the experiment with PC-3 prostate, in the experiment with RPMI-8226 leukemia and in the experiment on NCI-H23 lung was more than 100 µM in each case.
Take `CCN(CC)CCS(=O)c1c2cc(OC)ccc2nc2ccc(OC)cc12` (centres undefined): the TGI with HOP-92 NSCLC was more than 24.3 µM; in the experiment on HL-60(TB) leukemia, more than 100 µM; with SF-295 CNS, 44.2 µM; with EKVX NSCLC it was 30.8 µM; in the experiment on DU-145 prostate, 4.04 µM; with A549 NSCLC, 55.3 µM. The TGI in the experiment on MDA-MB-231 breast is 28.4 µM; with MOLT-4 leukemia, more than 21.2 µM; in the experiment on HOP-62 NSCLC, 44.8 µM; in the experiment with PC-3 prostate, 26.9 µM; in the experiment on RPMI-8226 leukemia it was 7.11 µM; in the experiment with NCI-H23 lung it was 41.3 µM.
Consider `CCCCc1c2c(nc3c1CCC/C3=C\c1ccccc1)C(=O)C(CN(C)C)CC2` (centres undefined), for which the TGI in the experiment on HOP-92 NSCLC stood at 33.5 µM; with HL-60(TB) leukemia, 18.2 µM; in the experiment with SF-295 CNS, 33.3 µM; with EKVX NSCLC, 36.1 µM; with DU-145 prostate, 29.1 µM; in the experiment with A549 NSCLC, 37.3 µM. The TGI in the experiment on MDA-MB-231 breast turned out to be 31.9 µM; in the experiment with MOLT-4 leukemia it was 11.5 µM; in the experiment on HOP-62 NSCLC, 34.1 µM; in the experiment with PC-3 prostate, 29.1 µM; in the experiment on RPMI-8226 leukemia it was 31.8 µM; in the experiment with NCI-H23 lung it was 31.8 µM.
Turning to `CC(=O)CCC[C@@H](C)[C@@H]1O[C@H]([C@@]2(C)CCC(=O)O2)C[C@H]2C(CSc3ccccc3)C(=O)O[C@@H]12` (some centres undefined), the TGI in the experiment with HOP-92 NSCLC is 39.1 µM; in the experiment with HL-60(TB) leukemia, 12.8 µM; with SF-295 CNS it was more than 66 µM; in the experiment with EKVX NSCLC it was 24.3 µM; with DU-145 prostate, 29.1 µM; in the experiment on A549 NSCLC, 44.1 µM. For the same molecule, the TGI in the experiment on MDA-MB-231 breast is 37.3 µM; with MOLT-4 leukemia, 16 µM; in the experiment with HOP-62 NSCLC, more than 100 µM; with PC-3 prostate it was 47.6 µM; in the experiment with RPMI-8226 leukemia, 52.1 µM; in the experiment on NCI-H23 lung, 49.3 µM.
On to `CCOC(=O)c1ccc(C(=O)/C(C#N)=C2\CCCN2)[nH]1`, for which the TGI with HOP-92 NSCLC, in the experiment on HL-60(TB) leukemia, in the experiment on SF-295 CNS, in the experiment with EKVX NSCLC, in the experiment on DU-145 prostate and in the experiment on A549 NSCLC was more than 100 µM in each case. Also, the TGI in the experiment on MDA-MB-231 breast, in the experiment on MOLT-4 leukemia, in the experiment with HOP-62 NSCLC, in the experiment on PC-3 prostate, with RPMI-8226 leukemia and with NCI-H23 lung was more than 100 µM in each case.
Consider `CCC(=O)COc1ccc(NC(NC(=O)C(C(F)(F)F)C(F)(F)F)(C(F)(F)F)C(F)(F)F)cc1`, for which the TGI is more than 100 µM in the experiment with HOP-92 NSCLC; 56.1 µM in the experiment on HL-60(TB) leukemia; more than 100 µM with SF-295 CNS; more than 100 µM in the experiment with EKVX NSCLC; more than 100 µM with DU-145 prostate; more than 100 µM in the experiment on A549 NSCLC. In addition, the TGI was 54.2 µM in the experiment on MDA-MB-231 breast; 44.8 µM in the experiment on MOLT-4 leukemia; more than 100 µM in the experiment with HOP-62 NSCLC; more than 100 µM in the experiment with PC-3 prostate; 52.8 µM with RPMI-8226 leukemia; more than 100 µM in the experiment on NCI-H23 lung.
On to `O=C(Nc1nc(C23CC4CC(CC(C4)C2)C3)cs1)c1cc2cc(Br)cc(Br)c2oc1=O`, for which the TGI in the experiment with HOP-92 NSCLC, with HL-60(TB) leukemia, in the experiment with SF-295 CNS, in the experiment on EKVX NSCLC, in the experiment on DU-145 prostate and with A549 NSCLC was more than 100 µM each time. The TGI with MDA-MB-231 breast, in the experiment on MOLT-4 leukemia, with HOP-62 NSCLC, in the experiment with PC-3 prostate, in the experiment on RPMI-8226 leukemia and in the experiment with NCI-H23 lung was more than 100 µM throughout.
Regarding `CCCCCc1c2nc(c(CCCCC)c3ccc([nH]3)c(CCCCC)c3ccc([nH]3)c(CCCCC)c3nc1C=C3)C=C2`, the TGI in the experiment with HOP-92 NSCLC, with HL-60(TB) leukemia, in the experiment on SF-295 CNS, with EKVX NSCLC, in the experiment on DU-145 prostate and with A549 NSCLC was more than 100 µM each time. In addition, the TGI with MDA-MB-231 breast, in the experiment with MOLT-4 leukemia, in the experiment with HOP-62 NSCLC, in the experiment on PC-3 prostate, in the experiment with RPMI-8226 leukemia and with NCI-H23 lung was more than 100 µM each time.
`c1ccc(CCN(Cc2nc3ccccc3[nH]2)Cc2nc3ccccc3[nH]2)cc1`: the TGI with HOP-92 NSCLC is 30.7 µM; in the experiment with HL-60(TB) leukemia, 7.8 µM; in the experiment on SF-295 CNS, 35.4 µM; in the experiment on EKVX NSCLC, more than 77.8 µM; in the experiment on DU-145 prostate, 31.7 µM; in the experiment with A549 NSCLC it was 44.8 µM. Further, the TGI is 31.8 µM with MDA-MB-231 breast; 39.3 µM in the experiment on MOLT-4 leukemia; 24.9 µM in the experiment with HOP-62 NSCLC; 36.7 µM in the experiment with PC-3 prostate; 11.6 µM with RPMI-8226 leukemia; 37.9 µM with NCI-H23 lung.
Turning to `O=C1/C(=C\c2cccc(Oc3ccccc3)c2)SC(c2ccccc2)N1c1ccc(Cl)cc1` (centres undefined), the TGI in the experiment with HOP-92 NSCLC, in the experiment with HL-60(TB) leukemia, in the experiment with SF-295 CNS, in the experiment with EKVX NSCLC, in the experiment on DU-145 prostate and in the experiment with A549 NSCLC was more than 100 µM in each case. Moreover, the TGI with MDA-MB-231 breast is more than 100 µM; with MOLT-4 leukemia, more than 63.6 µM; with HOP-62 NSCLC it was more than 100 µM; with PC-3 prostate it was more than 100 µM; in the experiment on RPMI-8226 leukemia, 41.9 µM; in the experiment on NCI-H23 lung, 98.7 µM.
As for `CC(C)/C=N\n1c(N)c(C#N)c(C#N)c1C(C)C`, the TGI is 38.3 µM with HOP-92 NSCLC; more than 100 µM in the experiment on HL-60(TB) leukemia; 73.7 µM in the experiment with SF-295 CNS; 72.8 µM in the experiment on EKVX NSCLC; more than 100 µM in the experiment with DU-145 prostate; more than 100 µM in the experiment on A549 NSCLC. Also, the TGI with MDA-MB-231 breast was more than 100 µM; in the experiment with MOLT-4 leukemia, 63.4 µM; in the experiment with HOP-62 NSCLC, more than 100 µM; with PC-3 prostate, 47.2 µM; in the experiment with RPMI-8226 leukemia it was 75.2 µM; in the experiment on NCI-H23 lung, 75.4 µM.

Source of the values: PubChem BioAssay (NCI).
